Measured values as given in patent US20220202739A1, “ENDOCANNABINOID MIMETIC AND ANTI-INFLAMMATORY COMPOUND CONTAINING COMPOSITIONS, METHODS OF PREPARATION AND USES THEREOF” (priority 2019, published 2022).

System: IL1A
Test: Gene expression custom microarray, human skin fibroblasts (Example 1): IL1A
Format: cell-based
Conditions: 24 hr; for fold induction at 10 µM: Skin fibroblast, read-out: IL1A↓ gene expression, fold increase or decrease vs untreated cells
Source text: Cell cultures: A human skin fibroblast cell culture (or cultures) was obtained through the Coriell Cell Repository from the National Institute on Aging Cell Repository (Camden, N.J.), or Promocell GmbH (Heidelberg, Germany). The initial culture was selected from the following cell lines: AG13066, AG11557, AG11796 or GM03651E. The cell lines were derived from donors as follows:
Experimental phase: When the appropriate quantity of cells had been grown, they were detached as described above, but at the final step were seeded into each well of one or more 6 well dishes. Each well received 2 ml of the cell suspension so they were seeded equally. The dishes were returned to the incubator until 85-95% confluency was reached.
It is at this stage that all wells were rinsed in PBS after aspirating the growth media. The compound(s) to be tested were previously mixed into a suitable solvent (e.g., DMSO or ethanol) that can be diluted to the desired concentration of test compound (10 μl) in the culture wells without exceeding maximum solvent concentrations and adversely effecting cell viability, and mixed with basal media. NOTE: Standard maximum levels of solvent are 0.1% for DMSO and 0.5% for ETOH. The concentration of each test compound is found in Tables 1 & 2.
Every 2 wells on the 6 well plate served as a biological replicate for the purposes of RNA isolation and genetic expression evaluations making each 6 well dish an n=3 for the test compound(s) contained in the media. Negative control plates (no test compound(s) and only basal media) were also generated. The plates were returned to the incubator for 24 hrs.
At the end of the 24 hr time period, the plates were removed from the incubator, the test media aspirated, and the cells rinsed with PBS. RNA isolation is performed using the BioRad Aurum Total RNA Mini Kit (Hercules, Calif.) per manufacturer's protocol; which is described, in brief, below: • Add 350 μl of lysis buffer to each well. Pipet multiple times to ensure thorough lysis. Add lysed cells to the collection tube. • Add 350 μl of 70% ETOH to the collection tube and mix thoroughly. • Pipet the generated lysate onto the spin column placed in a new 2 ml tube. Centrifuge for 30 sec between 8,000 and 10,000 g. • Place the spin column containing the now bound RNA, in a new 2 ml tube. Add 700 μl of low stringency wash solution to the spin column. Centrifuge for 30 sec between 8,000 and 10,000 g. Discard the flow through and replace spin column. • Add 80 μl of DNase I dilution to the spin column and incubate at room temperature for 15 minutes. • Add 700 μl of high stringency wash solution to the column and centrifuge for 30 sec between 8,000 and 10,000 g. Discard flow through. • Add 700 μl of low stringency wash solution to the column and centrifuge for 60 sec between 8,000 and 10,000 g. Discard flow through. • Centrifuge for 2 minutes to remove residual wash solution. • Transfer spin column to new 1.5 ml collection tube and add 80 μl of elution solution to the column. Allow 1 minute for saturation of the membrane and then centrifuge for 2 minutes to complete the RNA elution. • Quantify the quantity of RNA and store at −20 C° until use (no more than 1 month)
The genes tested were: • Cannabinoid receptor 1 (CB1(CNR1)) • Cannabinoid receptor 2 (CB2 (CNR2)) • Fatty acid amide hydrolase (FAAH) • Monoacylglycerol lipase (MGLL, i.e., MAGL) • Peroxisome proliferator-activated receptor gamma (PPARG) • Nuclear factor kappa-light-chain-enhancer of activated B cells (NFκβ) • Interleukin 1 Alpha (IL1alpha) • Cyclooxygenase 1 (PTGS1, i.e., COX1) • Transient receptor potential cation channel subfamily A member 1 (TRPA1) • Transient receptor potential cation channel subfamily V member 1 (TRPV1) • Transient receptor potential cation channel subfamily M member 8 (TRPM8) • Hemoglobin Subunit Beta (HBB) REFERENCE GENE • Ribosomal Protein L13a (RPL13A) REFERENCE GENE […]

Row | SMILES | fold induction at 10 µM | IL1A↓ gene expression, fold increase or decrease vs untreated cells (10 uM)
1 | C=C(C)[C@@H]1CCC(C)=C[C@H]1c1c(O)cc(CCCCC)cc1O [CBD, cannabidiol, reference compound] | 20.5 | 
2 | CCCCCCCCCCCCCCCC(=O)NCCO [N-palmitoylethanolamide] |  | −1.2 fold
3 | CC(C)[C@]12O[C@H]1[C@@H]1O[C@]13[C@]1(O[C@H]1C[C@H]1C4=C(CC[C@@]13C)C(=O)OC4)[C@@H]2O [Triptolide] | 15.5 | 
